A short description of data set [1]: uptake of carbon monoxide. The data set is classed as binding. The source says: Accordingly, the invention further provides a method for removing carbon monoxide from a liquid or vapour containing carbon monoxide by contacting the liquid or vapour with cucurbit[5]uril.
Data set [2] can be described thus: solubility in acid and salt solutions. The conditions noted are these: 0.1M Na2SO4 solution. The data set is classed as physicochemical. From the text: All of the cucurbit[n]urils that have been observed are apparently soluble in acid solutions. Cucurbit[5 or 7 or 8 or 10]uril have been purified by successive recrystallisations from acid solutions. Because of the similar nature of the cucurbiturils, this is a slow process with more than 10 recrystallisations required to purify cucurbit[7]uril. As shown in the German patents cucurbit[6]uril can be obtained in a relatively pure state from a single recystallisation process.
The present invention provides a method for producing a range of cucurbit[n]urils and cucurbit[s,u]urils. The synthesis method results in the production of a number of cucurbit[n]urils and cucurbit[s,u]urils that have never before been produced or isolated. Separation is possible via chromatography and/or selective precipitation. The product cucurbit[n]urils and cucurbit[s,u]urils are stable to vigorous reaction conditions over a wide range of pH values. They are soluble in aqueous acid or aqueous salt solutions. The method gives cucurbiturils in much larger yields than previously possible. The use of templating compounds allows a degree of control over the relative amounts of the different cucurbit[n]urils being produced.

A short description of data set [3]: binding of dioxane in aqueous solutions. The source says: This dioxane binding properly can form the basis of processes for the removal of dioxane. According to a further aspect of the present invention, the present invention provides a process for removing dioxane from a fluid comprising contacting the fluid with cucurbit[6]uril and/or cucurbit[7]uril.

Turning to `O=C1N2CN3C(=O)N4CN5C(=O)N6CN7C(=O)N8CN9C(=O)N%10CN1C1C2N2CN%11C(=O)N(CN%12C(=O)N(CN%13C(=O)N(CN%14C(=O)N(CN1C2=O)C%10C9%14)C8C7%13)C6C5%12)C4C3%11` (centres unmarked) [cucurbit[5]uril], in data set [1], the “uptake of carbon monoxide” value was “has shown uptake of carbon monoxide”.

On to `O=C1N2CN3C(=O)N4CN5C(=O)N6CN7C(=O)N8CN9C(=O)N%10CN%11C(=O)N%12CN1C1C2N2CN%13C(=O)N(CN%14C(=O)N(CN%15C(=O)N(CN%16C(=O)N(CN%17C(=O)N(CN1C2=O)C%12C%11%17)C%10C9%16)C8C7%15)C6C5%14)C4C3%13` (centres unmarked) [cucurbit[6]uril], for which the “dissolution in salt solution out of a mixture containing cucurbit[5-8]urils” value in data set [2] was “dissolving cucurbit[6 or 7]uril out of the complex mixture”. In addition, the binding of dioxane result in data set [3] is reported as “bind dioxane”.

Regarding cucurbit[7]uril, the “dissolution in salt solution out of a mixture containing cucurbit[5-8]urils” value in data set [2] was “dissolving cucurbit[6 or 7]uril out of the complex mixture”. In addition, in data set [3], the binding of dioxane result is recorded as “bind dioxane”.

The record behind these values is patent publication US6793839B1, “Cucurbiturils and method for synthesis” (Unisearch Limited, priority 1999, dated 2004).
